Laboratory results published in US8575176B2, “Heteroaromatic pyrazinoylguanidine sodium channel blockers” (Parion Sciences, Inc., priority 2008, dated 2013).
Counter-ions that a name gives are not always drawn.

Columns and labels:
[1] = molecular target: T1, epithelial sodium channels (ENaC) (Canis lupus familiaris, UniProt A0A8I3MKE6+A0A8I3Q679+Q95165); test: In vitro sodium channel blocking activity (short circuit current, Ussing chambers), dog airway cells; assay type: cell-based; details: freshly excised cell from dog airways
T1 sequence (A0A8I3Q679 1-649): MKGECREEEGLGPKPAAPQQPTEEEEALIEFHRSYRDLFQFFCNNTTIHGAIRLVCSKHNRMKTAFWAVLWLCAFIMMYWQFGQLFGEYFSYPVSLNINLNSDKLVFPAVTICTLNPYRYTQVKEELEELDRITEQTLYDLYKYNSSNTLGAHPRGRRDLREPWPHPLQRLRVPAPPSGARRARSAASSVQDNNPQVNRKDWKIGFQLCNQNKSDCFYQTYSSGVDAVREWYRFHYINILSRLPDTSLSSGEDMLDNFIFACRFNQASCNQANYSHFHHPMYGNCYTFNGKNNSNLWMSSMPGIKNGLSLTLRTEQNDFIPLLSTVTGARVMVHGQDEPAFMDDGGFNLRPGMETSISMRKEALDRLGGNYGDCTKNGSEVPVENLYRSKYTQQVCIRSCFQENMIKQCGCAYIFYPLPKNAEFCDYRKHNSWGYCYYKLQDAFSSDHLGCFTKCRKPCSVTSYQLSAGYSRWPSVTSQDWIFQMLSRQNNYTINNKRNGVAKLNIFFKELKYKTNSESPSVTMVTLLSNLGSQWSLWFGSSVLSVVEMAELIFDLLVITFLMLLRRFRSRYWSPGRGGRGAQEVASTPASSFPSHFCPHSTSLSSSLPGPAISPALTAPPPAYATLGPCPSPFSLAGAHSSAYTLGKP
T1 sequence (Q95165 1-641): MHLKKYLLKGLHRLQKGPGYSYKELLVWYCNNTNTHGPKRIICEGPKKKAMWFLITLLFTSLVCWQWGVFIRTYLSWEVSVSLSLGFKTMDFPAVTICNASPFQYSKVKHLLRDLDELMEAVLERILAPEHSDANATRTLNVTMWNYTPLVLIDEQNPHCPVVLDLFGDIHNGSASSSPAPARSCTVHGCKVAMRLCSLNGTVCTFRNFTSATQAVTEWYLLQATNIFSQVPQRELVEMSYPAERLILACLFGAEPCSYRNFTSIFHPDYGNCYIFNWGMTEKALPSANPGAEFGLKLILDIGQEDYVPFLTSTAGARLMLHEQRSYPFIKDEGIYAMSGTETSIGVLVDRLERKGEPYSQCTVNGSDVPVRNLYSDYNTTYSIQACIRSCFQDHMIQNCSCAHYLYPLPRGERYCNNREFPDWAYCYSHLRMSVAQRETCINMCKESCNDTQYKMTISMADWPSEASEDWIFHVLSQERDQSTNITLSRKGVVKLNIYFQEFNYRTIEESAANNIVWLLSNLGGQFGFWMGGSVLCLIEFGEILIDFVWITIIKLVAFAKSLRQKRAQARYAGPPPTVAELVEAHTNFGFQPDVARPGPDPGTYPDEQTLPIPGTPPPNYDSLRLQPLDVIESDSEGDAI
T1 sequence (A0A8I3MKE6 1-646): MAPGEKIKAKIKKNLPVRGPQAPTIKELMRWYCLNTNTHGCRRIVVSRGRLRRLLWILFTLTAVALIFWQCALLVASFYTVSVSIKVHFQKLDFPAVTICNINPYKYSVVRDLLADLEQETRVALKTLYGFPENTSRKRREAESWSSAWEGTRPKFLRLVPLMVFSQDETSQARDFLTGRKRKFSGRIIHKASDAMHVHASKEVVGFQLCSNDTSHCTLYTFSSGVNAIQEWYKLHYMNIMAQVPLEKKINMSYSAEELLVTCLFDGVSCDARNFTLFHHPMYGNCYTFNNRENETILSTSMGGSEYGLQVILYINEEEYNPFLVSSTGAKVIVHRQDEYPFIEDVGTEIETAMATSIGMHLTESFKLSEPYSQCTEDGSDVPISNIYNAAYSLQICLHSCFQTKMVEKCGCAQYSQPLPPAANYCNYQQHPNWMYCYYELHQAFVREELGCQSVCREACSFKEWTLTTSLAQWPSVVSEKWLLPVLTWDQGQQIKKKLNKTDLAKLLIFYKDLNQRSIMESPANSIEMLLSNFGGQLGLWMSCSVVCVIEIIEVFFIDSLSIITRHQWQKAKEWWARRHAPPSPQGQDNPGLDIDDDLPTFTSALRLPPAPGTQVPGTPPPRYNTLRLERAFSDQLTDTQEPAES
Experimental: One assay used to assess mechanism of action and/or potency of the compounds of the present invention involves the determination of lumenal drug inhibition of airway epithelial sodium currents measured under short circuit current (ISC) using airway epithelial monolayers mounted in Ussing chambers. Cells obtained from freshly excised human, dog, sheep or rodent airways are seeded onto porous 0.4 micron Snapwell™ Inserts (CoStar), cultured at air-liquid interface (ALI) conditions in hormonally defined media, and assayed for sodium transport activity (ISC) while bathed in Krebs Bicarbonate Ringer (KBR) in Using chambers. All test drug additions are to the lumenal bath with half-log dose addition protocols (from 1×10^−11 M to 3×10^−5 M), and the cumulative change in ISC (inhibition) recorded. All drugs are prepared in dimethyl sulfoxide as stock solutions at a concentration of 1×10^−2 M and stored at −20° C. […] After the maximal concentration (5×10^−5 M) is administered, the lumenal bath is exchanged three times with fresh drug-free KBR solution, and the resultant ISC measured after each wash for approximately 5 minutes in duration. […] All data from the voltage clamps are collected via a computer interface and analyzed off-line.
(§1) Dose-effect relationships for all compounds are considered and analyzed by the Prism 3.0 program.

[2] = molecular target: T2, epithelial sodium channels (ENaC) (Homo sapiens, UniProt P37088+P51168+P51170); test: In vitro sodium channel blocking activity (short circuit current, Ussing chambers), human airway cells; assay type: cell-based; details: freshly excised cell from human airways
T2 construct: endogenous in cells; host or cells: primary human airway epithelial cells cultured at air-liquid interface
T2 sequence (P37088 1-669): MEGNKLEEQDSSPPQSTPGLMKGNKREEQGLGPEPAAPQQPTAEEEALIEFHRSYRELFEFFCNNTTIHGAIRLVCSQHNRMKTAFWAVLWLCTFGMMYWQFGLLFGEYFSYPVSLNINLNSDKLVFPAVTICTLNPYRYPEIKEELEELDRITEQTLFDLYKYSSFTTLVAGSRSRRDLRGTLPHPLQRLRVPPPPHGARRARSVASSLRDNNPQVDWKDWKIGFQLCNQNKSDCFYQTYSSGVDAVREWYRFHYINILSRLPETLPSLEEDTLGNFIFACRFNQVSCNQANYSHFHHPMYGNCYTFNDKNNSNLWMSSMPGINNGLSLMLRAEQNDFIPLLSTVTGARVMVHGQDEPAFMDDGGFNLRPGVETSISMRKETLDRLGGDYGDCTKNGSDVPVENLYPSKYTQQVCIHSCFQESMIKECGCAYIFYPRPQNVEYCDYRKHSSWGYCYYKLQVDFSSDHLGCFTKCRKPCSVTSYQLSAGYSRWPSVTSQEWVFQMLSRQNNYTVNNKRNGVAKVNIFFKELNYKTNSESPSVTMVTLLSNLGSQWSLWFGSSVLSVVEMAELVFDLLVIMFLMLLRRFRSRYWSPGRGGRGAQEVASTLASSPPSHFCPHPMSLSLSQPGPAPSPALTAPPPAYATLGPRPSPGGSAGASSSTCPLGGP
T2 sequence (P51168 1-640): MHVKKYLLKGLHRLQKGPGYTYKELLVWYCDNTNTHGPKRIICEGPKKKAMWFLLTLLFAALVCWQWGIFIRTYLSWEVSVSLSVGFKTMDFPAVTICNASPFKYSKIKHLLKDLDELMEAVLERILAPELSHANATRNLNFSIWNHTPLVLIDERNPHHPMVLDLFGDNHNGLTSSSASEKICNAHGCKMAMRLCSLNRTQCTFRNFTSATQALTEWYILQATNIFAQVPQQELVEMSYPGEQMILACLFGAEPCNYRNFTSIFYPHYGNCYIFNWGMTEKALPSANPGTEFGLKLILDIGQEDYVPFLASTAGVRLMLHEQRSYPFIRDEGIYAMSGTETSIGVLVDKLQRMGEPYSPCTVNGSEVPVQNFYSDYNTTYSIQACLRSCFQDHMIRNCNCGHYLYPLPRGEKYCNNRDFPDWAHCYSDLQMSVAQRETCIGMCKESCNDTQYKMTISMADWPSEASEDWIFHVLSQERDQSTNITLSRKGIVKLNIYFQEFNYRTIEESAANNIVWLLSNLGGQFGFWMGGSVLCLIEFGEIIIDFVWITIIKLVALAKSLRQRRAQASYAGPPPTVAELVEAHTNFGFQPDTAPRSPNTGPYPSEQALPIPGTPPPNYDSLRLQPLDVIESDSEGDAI
T2 sequence (P51170 1-649): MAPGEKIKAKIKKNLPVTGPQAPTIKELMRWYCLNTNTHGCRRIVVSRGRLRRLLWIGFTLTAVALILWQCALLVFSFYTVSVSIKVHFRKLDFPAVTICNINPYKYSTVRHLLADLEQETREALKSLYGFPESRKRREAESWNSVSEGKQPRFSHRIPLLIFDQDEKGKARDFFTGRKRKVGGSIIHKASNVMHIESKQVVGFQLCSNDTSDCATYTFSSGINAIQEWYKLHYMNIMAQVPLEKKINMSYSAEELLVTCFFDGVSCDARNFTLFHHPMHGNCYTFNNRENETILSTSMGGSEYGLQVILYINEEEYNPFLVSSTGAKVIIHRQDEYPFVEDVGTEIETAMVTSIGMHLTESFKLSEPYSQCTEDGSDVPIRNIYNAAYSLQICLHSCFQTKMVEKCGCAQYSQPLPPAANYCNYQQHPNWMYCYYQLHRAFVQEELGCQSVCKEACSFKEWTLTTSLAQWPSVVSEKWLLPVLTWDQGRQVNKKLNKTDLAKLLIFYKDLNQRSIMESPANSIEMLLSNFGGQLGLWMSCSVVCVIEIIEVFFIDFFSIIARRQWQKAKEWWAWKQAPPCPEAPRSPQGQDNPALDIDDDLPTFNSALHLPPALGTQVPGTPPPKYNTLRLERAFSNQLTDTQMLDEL
Experimental: In Vitro Measure of Sodium Channel Blocking Activity and Reversibility
One assay used to assess mechanism of action and/or potency of the compounds of the present invention involves the determination of lumenal drug inhibition of airway epithelial sodium currents measured under short circuit current (ISC) using airway epithelial monolayers mounted in Ussing chambers. Cells obtained from freshly excised human, dog, sheep or rodent airways are seeded onto porous 0.4 micron Snapwell™ Inserts (CoStar), cultured at air-liquid interface (ALI) conditions in hormonally defined media, and assayed for sodium transport activity (ISC) while bathed in Krebs Bicarbonate Ringer (KBR) in Using chambers. All test drug additions are to the lumenal bath with half-log dose addition protocols (from 1×10^−11 M to 3×10^−5 M), and the cumulative change in ISC (inhibition) recorded. All drugs are prepared in dimethyl sulfoxide as stock solutions at a concentration of 1×10^−2 M and stored at −20° C. […] After the maximal concentration ([…]) is administered, the lumenal bath is exchanged three times with fresh drug-free KBR solution, and the resultant ISC measured after each wash for approximately 5 minutes in duration. Reversibility is defined as the percent return to the baseline value for sodium current after the third wash. All data from the voltage clamps are collected via a computer interface and analyzed off-line.
as §1

SMILES	IC50 [1]	Potency of Sodium Channel Blockade Relative to Amiloride [2]	melting point
CC1OC[C@@H](O)[C@H]([C@H](O)[C@@H](O)CNCCCOc2ccc3cc(CCCCN)ccc3c2)O1 (some centres unmarked) [Compound 105]	23.5 nM		
CS(=O)(=O)O.N=C(NCCCCc1ccc(OCCCN)c2ccccc12)NC(=O)c1nc(Cl)c(N)nc1N [Compound 72, 3,5-Diamino-N—(N-{4-[4-(3-aminopropoxy)naphthalen-1-yl]butyl}carbamimidoyl)-6-chloropyrazine-2-carboxamide Methanesulfonic Acid Salt]		164	
C[C@H](O)C(=O)O.N=C(NCCCCc1ccc(OCC(O)CO)c2ccccc12)NC(=O)c1cc(Cl)c(N)cc1N [Compound 26, 2,4-Diamino-5-chloro-N—(N-{4-[4-(2,3-dihydroxypropoxy)naphthalen-1-yl]butyl}carbamimidoyl)benzamide L-(+)-Lactic Acid Salt]		30	115 to 118 °C
N=C(NCCCCc1ccc2cc(OCC(O)CO)ccc2c1)NC(=O)c1nc(Cl)c(N)nc1N (centres unmarked) [Compound 34, 3,5-Diamino-6-chloro-N—(N-{4-[6-(2,3-dihydropropoxy)naphthalen-2-yl]butyl}carbamimidoyl)pyrazine-2-carboxamide Methanesulfonic Acid Salt]		63	
